Here are results for two molecules from patent US12728126B2, “Compounds for inhibiting LY6K and methods of using same” (The Henry M. Jackson Foundation for the Advancement of …, priority 2020, dated 2026).

Experiment [1] concerns Hs-578-T cells, BT-549 cells, and OVCAR-8 cells. Kind of experiment: In vitro cell growth inhibition in other cancer cell types (FIG. 2). In kind it is cell-based. The procedure: (§1) For cell death assay, cells were plated in a black walled 96-well plate and treated with the indicated concentration of drugs for 24 h. Cell-Titer-Blue reagent was added, and the Cytation 5 microplate reader (BioTek, Winooski, VT, USA) was used to measure fluorescence intensity (excitation 560(10) nm, emission 590(20) nm) according to manufacturer's instructions.
Cell culture and viability assay are as described herein. […] The inhibitory effect of a crystalline form of Compound I on cell growth in vitro is further illustrated in other cancer cells types, including Hs-578-T cells, BT-549 cells, and OVCAR-8 cells (FIG. 2).

The test system of experiment [2] is TGFβ1/Smad2/3 signaling. Put plainly: Western blot of TGFβ1 induced phosphorylation of Smad2/3. In kind it is cell-based. Particulars: serum starved, TGFβ1 (10 ng/mL), 2 μM, 30 minutes. The method, then:
(§2) Cells were serum starved overnight and then treated with TGF 13 (10 ng/mL) or IFN γ (100 ng/mL) in the presence of 2 μM NSC243928 or NSC11150 for 30 minutes followed by protein analysis using western blot. […] NSC243928 inhibited the TGFβ1 induced phosphorylation of Smad2/3; NSC11150 had no effect on TGFβ1/Smad2/3 signaling. NSC11150 inhibited IFNγ induced phosphorylation of Stat1; NSC243928 had no effect on IFNγ/Stat1 signaling.

Experiment [3] has as its system PD-L1. Put plainly: PD-L1 measured in live cells after IFN γ treatment. In kind it is cell-based. The conditions noted are these: serum starved, 100 ng/ml IFN γ, 2 μM drug. The method, then:
Cells were serum starved and treated with 100 ng/ml IFN γ with 2 μM drugs. PD-L1 was measured in live cells (using a zombie live-dead stain). The graph was plotted from three experiments. A 7.9-fold decrease in the number of cells with high PD-L1 expression was observed.

The test system of experiment [4] is MDA-MB-231 cells. Put plainly: Cell-Titer-Blue assay, control vs LY6K knockdown MDA-MB-231 cells. In kind it is cell-based. The procedure: as §1
To confirm the effect of NSC243928 in LY6K-expressing cells, it was observed the parental control and sh2 LY6K knockdown in MDA-MB-231 cells, a triple negative breast cancer cell line. These cells were generated as previously described. To test the effect of NSC243928 on cell growth, the cells were seeded into 96-well plates and treated with 2 μM of the compound for 24 h. A CTB assay was then performed according to manufacturer's instructions to determine the cell growth.
as §2

For experiment [5], the system named is IFNγ/Stat1 signaling. Put plainly: Western blot of IFNγ induced phosphorylation of Stat1. In kind it is cell-based. The conditions noted are these: serum starved, IFN γ (100 ng/mL), 2 μM, 30 minutes. The procedure:
as §2

The test system of experiment [6] is 4T1 mouse mammary tumor cells. Put plainly: 4T1 syngeneic mammary tumor model, tumor growth in vivo. More on the design: species or system Balb/c mice. Particulars: 4T1 model. The procedure:
A syngeneic mammary tumor model is used to show the effect of Ly6K small molecule inhibitors on tumor growth in vivo. 4T1 mouse model is an orthotopic allograft model (also called the spontaneous tumor metastasis model). In the 4T1 mouse model, 4T1 mouse mammary tumor cells were injected into the second mammary gland of syngenetic Balb/c mice, and the spontaneous metastasis to the lung were analyzed with a colonogenic assay. 4T1 mice bearing 50-70 mm^3 tumors were treated with NSC243928 or NSC11150 every second day at a dosage of 5 mg/kg in saline. Each group had 10 mice. Tumor measurements were performed using a Vernier caliper. The tumor volumes were calculated using equation ½*length*(width*width).

The subject of experiment [7] is PD-L1. Put plainly: PD-L1 protein expression in control cells. The conditions noted are these: 2 μM. The format is cell-based.

pIC50: −log10 of the molar value.

For orientation: pIC50 means −log10 of the IC50, conventionally taken in molar units. A higher pIC50 goes with a low IC50.

In the case of `CCS(=O)(=O)Nc1ccc(Nc2c3ccccc3nc3ccccc23)c(OC)c1` [crystalline form of Compound I, N-(4-(acridin-9-ylamino)-3-methoxyphenyl)ethanesulfonamide], the “inhibitory effect on cell growth at different concentrations (comparison)” value in experiment [1] (crystalline form compared, different concentrations) is reported as “same or better inhibitory effect”. Besides, in experiment [1] (range over the cell types of FIG. 2), the pIC50 was 5.12 to 5.38.

Take `Oc1ccc(Cc2ccc(Cl)cc2)c(O)c1` [Compound II, 4-(4-chlorobenzyl)benzene-1,3-diol]: the “TGFβ1 induced phosphorylation of Smad2/3” value in experiment [2] is reported as “had no effect”. Further, in experiment [3], the “inhibitory effect on cells with high expression of PD-L1” value was “showed inhibitory effect”. For the same molecule, the “decrease in the number of cells with high PD-L1 expression” value in experiment [3] (live cells, three experiments) is listed as 7.9 fold. In experiment [4] (2 μM, 24 h, control cells), the “cell death / cell growth in control MDA-MB-231 cells” value is “did not show significant effect on cell death”. Besides, the “cell death in Ly6K knockdown cells” value in experiment [4] (100 μM, Ly6K knockdown cells (data not shown)) was “induced cell death”. Also, in experiment [4] (100 μM, control cells (data not shown)), the “cell death in control cells” value was “induced cell death”. In addition, the “IFNγ induced phosphorylation of Stat1” value in experiment [5] is given as “inhibited”. For the same molecule, in experiment [6] (5 mg/kg every second day, P<0.005), the “day following treatment at which inhibition on tumor growth is statistically significant” value came to 11 days. Also, the “inhibitory effect on tumor growth in vivo” value in experiment [6] (5 mg/kg in saline every second day) is “significant inhibitory effects”. Besides, the PD-L1 protein expression entry in experiment [7] is on record as “inhibition of PD-L1 expression”.
